Experimental data reported in ChEMBL document CHEMBL2203276, “Design, synthesis and evaluation of novel zwitterionic compounds as PPARα/γ dual agonists (1)” (Bioorg Med Chem Lett, 2012).

Experiments:
[1] = target: T1, Peroxisome proliferator-activated receptor gamma (Homo sapiens, UniProt P37231); type: functional, cell-based
T1 sequence (P37231 whole entry): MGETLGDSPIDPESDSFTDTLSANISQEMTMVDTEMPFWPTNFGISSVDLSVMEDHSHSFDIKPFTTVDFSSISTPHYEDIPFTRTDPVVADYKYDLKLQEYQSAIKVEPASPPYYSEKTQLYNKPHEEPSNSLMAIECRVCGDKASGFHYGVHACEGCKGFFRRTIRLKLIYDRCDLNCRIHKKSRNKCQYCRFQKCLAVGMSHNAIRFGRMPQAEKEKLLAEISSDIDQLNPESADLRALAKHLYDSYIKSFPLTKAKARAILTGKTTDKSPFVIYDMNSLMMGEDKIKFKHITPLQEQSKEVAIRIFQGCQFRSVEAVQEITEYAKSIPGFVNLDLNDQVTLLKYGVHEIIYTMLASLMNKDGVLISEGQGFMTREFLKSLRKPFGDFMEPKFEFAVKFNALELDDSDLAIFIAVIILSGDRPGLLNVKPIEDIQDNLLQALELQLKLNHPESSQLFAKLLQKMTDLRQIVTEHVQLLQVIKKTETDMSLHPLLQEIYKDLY
Description: Agonist activity at GAL4-fused PPARgamma assessed as transcriptional activity by cell based assay

[2] = target: T2, Peroxisome proliferator-activated receptor alpha (Homo sapiens, UniProt Q07869); assay: Agonist activity at GAL4-fused PPARalpha assessed as transcriptional activity by cell based assay; type: functional
T2 sequence (Q07869 whole entry): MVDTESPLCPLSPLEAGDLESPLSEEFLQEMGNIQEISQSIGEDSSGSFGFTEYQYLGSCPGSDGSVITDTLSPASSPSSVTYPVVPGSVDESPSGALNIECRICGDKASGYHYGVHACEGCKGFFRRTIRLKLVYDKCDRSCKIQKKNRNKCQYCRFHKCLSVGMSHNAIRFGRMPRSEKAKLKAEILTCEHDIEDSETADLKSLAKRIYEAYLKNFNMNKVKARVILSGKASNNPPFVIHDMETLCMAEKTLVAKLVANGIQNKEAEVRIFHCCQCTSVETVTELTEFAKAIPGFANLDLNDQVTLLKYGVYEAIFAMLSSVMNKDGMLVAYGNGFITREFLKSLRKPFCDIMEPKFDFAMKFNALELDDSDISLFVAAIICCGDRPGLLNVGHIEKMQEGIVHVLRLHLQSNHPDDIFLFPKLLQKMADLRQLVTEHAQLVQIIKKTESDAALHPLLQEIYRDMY

Mus musculus [3] = assay: Antidiabetic activity in db/db mouse type 2 diabetic model assessed as reduction of plasma glucose level at 30 mg/kg, po administered for 14 days; type: functional; parameters: scale not given: the % may be the effect or the level left
Mus musculus [4] = assay: Toxicity in db/db mouse type 2 diabetic model assessed as reduction of body weight at 30 mg/kg, po administered for 14 days; type: organism-based; parameters: dose 30 mg/kg, route oral; scale not given: the % may be the effect or the level left; settings: in vivo, 336 h
Mus musculus [5] = assay: Antidiabetic activity in db/db mouse type 2 diabetic model assessed as reduction of plasma triglyceride level at 30 mg/kg, po administered for 14 days; type: functional; parameters: scale not given: the % may be the effect or the level left
Mus musculus [6] = assay: Antidiabetic activity in db/db mouse type 2 diabetic model assessed as reduction of plasma glucose level at 10 mg/kg, po administered for 14 days; type: functional; parameters: scale not given: the % may be the effect or the level left
Mus musculus [7] = assay: Toxicity in db/db mouse type 2 diabetic model assessed as reduction of body weight at 10 mg/kg, po administered for 14 days; type: organism-based; parameters: dose 10 mg/kg, route oral; scale not given: the % may be the effect or the level left; settings: in vivo, 336 h
Mus musculus [8] = assay: Antidiabetic activity in db/db mouse type 2 diabetic model assessed as reduction of plasma triglyceride level at 10 mg/kg, po administered for 14 days; type: functional; parameters: scale not given: the % may be the effect or the level left

| Compound | EC50 [1] | EC50 [2] | also measured |
| --- | --- | --- | --- |
| CCCCN(Cc1ccc(OC(C)(C)C(=O)O)cc1)Cc1nc(-c2cccc(Br)c2)oc1C | 1.3 µM | 0.5 µM |  |
| Cc1oc(-c2ccccc2)nc1CNc1ccc(OC(C)(C)C(=O)O)cc1 | 8.8 µM | 7.2 µM |  |
| Cc1oc(-c2cccc(Br)c2)nc1CN(Cc1ccccc1)Cc1ccc(OC(C)(C)C(=O)O)cc1 | 2.2 µM | 0.056 µM |  |
| COc1ccc(OC(=O)N(CC(=O)O)Cc2ccc(OCCc3nc(-c4ccccc4)oc3C)cc2)cc1 [MURAGLITAZAR] |  | 0.3 µM |  |
| COc1cc(OC(C)(C)C(=O)O)ccc1CN(Cc1ccco1)Cc1nc(-c2ccccc2)oc1C | 0.33 µM | 0.032 µM |  |
| Cc1oc(-c2ccccc2)nc1CN(Cc1ccco1)Cc1ccc(OC(C)(C)C(=O)O)cc1Cl | 0.89 µM | 0.036 µM |  |
| Cc1oc(-c2cccc(Br)c2)nc1CN(Cc1ccc(OC(C)(C)C(=O)O)cc1)C(=O)c1ccccc1 | > 25 µM | > 25 µM |  |
| Cc1oc(-c2ccccc2)nc1CN(Cc1ccc(OC(C)(C)C(=O)O)cc1)Cc1ccco1 | 0.67 µM | 0.013 µM |  |
| CN(CCOc1ccc(CC2SC(=O)NC2=O)cc1)c1ccccn1 (stereo not drawn) [ROSIGLITAZONE] |  |  | Activity (Mus musculus [6]): 54%; Activity (Mus musculus [7]): 10.1%; Activity (Mus musculus [8]): 58% |
| Cc1oc(-c2ccccc2)nc1CNCc1ccc(OC(C)(C)C(=O)O)cc1 | > 25 µM | 10 µM |  |
| Cc1cc(CN(Cc2ccco2)Cc2nc(-c3ccccc3)oc2C)ccc1OC(C)(C)C(=O)O | 0.042 µM | 0.0039 µM |  |
| Cc1oc(-c2ccccc2)nc1CC(=O)Nc1ccc(OC(C)(C)C(=O)O)cc1 | > 25 µM | > 25 µM |  |

More lines, main results first:

| EC50 [1] | EC50 [2] | Compound | also measured |
| --- | --- | --- | --- |
| 0.18 µM | 0.009 µM | COc1cc(CN(Cc2ccco2)Cc2nc(-c3ccccc3)oc2C)ccc1OC(C)(C)C(=O)O |  |
| > 25 µM | 0.5 µM | Cc1oc(-c2ccccc2)nc1CCOc1ccc(OC(C)(C)C(=O)O)cc1 | Activity (Mus musculus [3]): 25%; Activity (Mus musculus [4]): 8.4%; Activity (Mus musculus [5]): 56% |
| 0.7 µM | 0.026 µM | COc1ccc(CN(Cc2ccc(OC(C)(C)C(=O)O)cc2)Cc2nc(-c3cccc(Br)c3)oc2C)cc1 |  |
| 0.071 µM | 0.0051 µM | Cc1oc(-c2ccccc2)nc1CN(Cc1ccc(OC(C)(C)C(=O)O)c(Cl)c1)Cc1ccco1 |  |
| 7.7 µM | 0.67 µM | Cc1oc(-c2cccc(Br)c2)nc1CNCc1ccc(OC(C)(C)C(=O)O)cc1 |  |
| 0.31 µM | 0.0081 µM | Cc1oc(-c2cccc(Br)c2)nc1CN(Cc1ccc(OC(C)(C)C(=O)O)cc1)Cc1ccco1 |  |
| 0.0047 µM | 0.0017 µM | Cc1cc(CN(Cc2ccco2)Cc2nc(-c3ccccc3)oc2C)cc(C)c1OC(C)(C)C(=O)O | Activity (Mus musculus [6]): 74%; Activity (Mus musculus [7]): -7.6%; Activity (Mus musculus [8]): 88% |
| 16 µM | 5.2 µM | Cc1oc(-c2ccccc2)nc1CCNc1ccc(OC(C)(C)C(=O)O)cc1 |  |
| 0.8 µM | 0.081 µM | Cc1oc(-c2cccc(Br)c2)nc1CCOc1ccc(OC(C)(C)C(=O)O)cc1 |  |
